The values below come from publication PMC4682634 (PLoS ONE, 2015).

The assay addresses T1, endogenous BK channel (Rattus norvegicus, UniProt Q62976).
T1 construct: gene Kcnma1; endogenous BK in A7r5 smooth muscle cells
Nature of the assay: whole-cell patch-clamp, paxilline-sensitive current density in A7r5 cells. The format is cell-based. (The patch-clamp technique gives a direct electrical read-out from membranes.)

T1 sequence (Q62976 whole entry): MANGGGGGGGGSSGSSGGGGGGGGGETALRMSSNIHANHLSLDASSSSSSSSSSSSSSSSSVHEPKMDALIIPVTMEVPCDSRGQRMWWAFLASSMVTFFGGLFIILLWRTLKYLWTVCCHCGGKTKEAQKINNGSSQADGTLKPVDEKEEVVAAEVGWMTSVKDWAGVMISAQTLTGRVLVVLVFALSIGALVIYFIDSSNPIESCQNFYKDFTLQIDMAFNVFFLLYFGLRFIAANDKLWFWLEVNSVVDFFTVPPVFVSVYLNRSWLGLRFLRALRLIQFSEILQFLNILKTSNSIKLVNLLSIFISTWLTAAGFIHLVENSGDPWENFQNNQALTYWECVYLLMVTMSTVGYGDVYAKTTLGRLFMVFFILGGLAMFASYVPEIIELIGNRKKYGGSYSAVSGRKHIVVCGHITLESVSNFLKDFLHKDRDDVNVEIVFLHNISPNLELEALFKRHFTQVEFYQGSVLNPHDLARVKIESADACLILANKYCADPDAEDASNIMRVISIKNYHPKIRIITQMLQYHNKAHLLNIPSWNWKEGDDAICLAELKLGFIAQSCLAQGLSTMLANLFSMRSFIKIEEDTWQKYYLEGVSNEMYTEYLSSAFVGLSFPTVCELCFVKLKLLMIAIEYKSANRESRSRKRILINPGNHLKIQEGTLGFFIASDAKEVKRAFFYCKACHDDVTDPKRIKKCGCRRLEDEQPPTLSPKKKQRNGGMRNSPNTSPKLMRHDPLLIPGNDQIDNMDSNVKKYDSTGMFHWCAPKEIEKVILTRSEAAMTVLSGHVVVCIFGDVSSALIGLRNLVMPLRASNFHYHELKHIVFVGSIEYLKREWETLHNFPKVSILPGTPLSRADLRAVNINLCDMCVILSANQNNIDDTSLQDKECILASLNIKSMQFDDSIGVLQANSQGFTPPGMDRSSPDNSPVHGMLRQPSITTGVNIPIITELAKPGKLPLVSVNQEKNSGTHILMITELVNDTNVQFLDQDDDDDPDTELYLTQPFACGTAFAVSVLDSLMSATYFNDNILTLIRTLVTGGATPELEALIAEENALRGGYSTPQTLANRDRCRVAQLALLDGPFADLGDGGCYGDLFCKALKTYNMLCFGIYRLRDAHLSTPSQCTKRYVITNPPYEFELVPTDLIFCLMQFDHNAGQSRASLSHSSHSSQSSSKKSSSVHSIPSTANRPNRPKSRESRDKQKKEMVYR

Broadly, the EC50 is the midpoint of the concentration-response curve. The low end stands for greater potency, the high end for weaker potency. As to `COc1cc(/C=C/C(=O)CC(=O)/C=C/c2ccc(O)c(OC)c2)ccc1O` [curcumin], a half-maximal effect (EC50) was put at 6.93 ± 0.78 µM.
